# The supplement of paper PMC10307832
# Legend:
# Test in all cases: relative viability (nuclei count vs DMSO), 5 days (fraction); higher = more cells survive
# [1] = compound: C1=CC=C2C(=C1)N=C(S2)C(C#N)C3=NC(=NC=C3)NCCC4=CN=CC=C4
# Outline: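 Five library-drug doses, separated by factors of √10, were pinned into 1536-well plates holding lung cancer cell lines after an overnight stay at 37 °C. Cells were fixed, permeabilised and Hoechst-stained in one step after 5 days without medium change, then imaged at 4×. Viability compares treated-well with vehicle-well nuclei, counted in MetaXpress, as a median across plates. Passing plates had control CV below 25% and at least one doubling.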
# [2] = compound: C1=CC=C2C(=C1)N=C(S2)C(C#N)C3=NC(=NC=C3)NCCC4=CN=CC=C4 + Cc1cc(Nc2cc(N3CCN(C)CC3)nc(Sc3ccc(NC(=O)C4CC4)cc3)n2)n[nH]1 [Tozasertib] (partner 0.1 µM)
# Outline: (§1)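 Nuclei were stained with Hoechst during a one-step fixation (final 0.05% Triton X-100, 1% formaldehyde, 1 ug/ml Hoechst) carried out 5 days after dosing, then counted on 4× images. The cells, lung cancer lines in 1536-well plates, had been dosed by pin tool the day after seeding with one drug alone or a fixed anchor-drug dose plus five library-drug doses (not always all listed) in √10 steps. Relative viability is the nuclei count in treated wells divided by that in vehicle wells, and each value is the median of duplicate plates.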
# [3] = compound: C#Cc1cccc(Nc2ncnc3cc(OC)c(OCCCCCCC(=O)NO)cc23)c1 [CUDC-101] + COc1cc2c(Oc3ccc(NC(=O)C4(C(=O)Nc5ccc(F)cc5)CC4)cc3F)ccnc2cc1OCCCN1CCOCC1 [Foretinib] (partner 0.25 µM)
# Outline: as §1
# [4] = compound: C#Cc1cccc(Nc2ncnc3cc(OC)c(OCCCCCCC(=O)NO)cc23)c1 [CUDC-101] + CS(=O)(=O)CCNCc1ccc(-c2ccc3ncnc(Nc4ccc(OCc5cccc(F)c5)c(Cl)c4)c3c2)o1 [Lapatinib] (partner 2 µM)
# Outline: as §1
Cell Line,relative viability ([1]; 0.005 µM),relative viability ([1]; 0.01581 µM),relative viability ([1]; 0.05 µM),relative viability ([1]; 0.1581 µM),relative viability ([1]; 0.5 µM),relative viability ([2]; first compound 0.005 µM),relative viability ([2]; first compound 0.01581 µM),relative viability ([2]; first compound 0.05 µM),relative viability ([2]; first compound 0.1581 µM),relative viability ([2]; first compound 0.5 µM),relative viability ([3]; first compound 0.01 µM),relative viability ([3]; first compound 0.03162 µM),relative viability ([3]; first compound 0.1 µM),relative viability ([3]; first compound 0.3162 µM),relative viability ([3]; first compound 1 µM),relative viability ([4]; first compound 0.01 µM),relative viability ([4]; first compound 0.03162 µM),relative viability ([4]; first compound 0.1 µM),relative viability ([4]; first compound 0.3162 µM),relative viability ([4]; first compound 1 µM)
NCI-H322M,0.745,0.839,0.924,0.951,0.914,0.4,0.382,0.487,0.531,0.48,0.833,0.706,0.834,0.703,0.503,0.618,0.648,0.521,0.575,0.603
SK-MES-1,1.05,1.02,0.949,1.09,0.882,0.909,0.978,0.838,0.886,0.511,0.937,0.843,0.981,1.01,0.679,0.466,0.462,0.451,0.461,0.388
NCI-H1355,0.934,0.931,0.986,1.1,0.912,0.445,0.516,0.463,0.594,0.385,1.08,1.01,1.03,1.07,0.821,1.04,0.825,1.05,0.895,0.679
NCI-H2126,0.912,0.977,0.946,1.05,0.864,0.709,0.837,0.823,0.934,0.681,1.25,0.971,1.08,1.26,1.01,0.764,0.785,0.758,0.803,0.635
NCI-H520,0.847,0.973,0.953,0.968,0.96,0.406,0.431,0.467,0.376,0.421,0.961,0.746,0.804,0.752,0.509,0.94,–,0.879,0.76,0.323
NCI-H1755,1.03,1.15,0.985,1.09,0.99,0.448,0.544,0.563,0.598,0.584,0.899,0.905,0.99,1.01,0.903,1.09,1.04,1.02,1.1,0.798
NCI-H358,0.784,0.904,0.823,1.06,0.913,0.084,0.0964,0.0992,0.109,0.0865,0.815,0.565,0.759,0.675,0.179,0.553,0.397,0.517,0.489,0.29
NCI-H1650,0.89,0.816,0.922,1,0.774,0.289,0.405,0.391,0.377,0.315,1.09,0.615,0.976,0.905,0.59,0.833,0.72,0.963,0.772,0.48
